Source: ChEMBL document CHEMBL3272256, “Antimalarials. 11. 2-Vinylogs of substituted 2-aryl-4-quinoline amino alcohols” (J Med Chem, 1976)
Activity calls are given as the source filed them. The calls are words filed in the database; no cut-off is given here.

Experiments:
Type in all cases: functional, organism-based
Plasmodium berghei [1] = assay: Antimalarial activity against Plasmodium berghei infected in mouse at 10 mg/kg; parameters: dose 10 mg/kg
Plasmodium berghei [2] = assay: Antimalarial activity against Plasmodium berghei infected in mouse assessed as complete cure at 40 mg/kg; parameters: dose 40 mg/kg
Plasmodium berghei [3] = assay: Antimalarial activity against Plasmodium berghei infected in mouse at 20 mg/kg; parameters: dose 20 mg/kg
Plasmodium berghei [4] = assay: Antimalarial activity against Plasmodium berghei infected in mouse assessed as complete cure at 160 mg/kg; parameters: dose 160 mg/kg

With `CCCCN(CCCC)CC(O)c1c2c(nc3c(C)cc(C)cc13)/C(=C/c1ccc(Cl)cc1)CC2` (stereo not given) as the compound, how does the Activity (Plasmodium berghei [1]) read?
The Activity was “Active”.

And the Activity (Plasmodium berghei [2])?
Its Activity is “Active”.

With `CCCCN(CCCC)CC(O)c1cc(/C=C/c2ccc(Cl)cc2)nc2c(C)cc(C)cc12` (stereo not given) as the compound, how does the Activity (Plasmodium berghei [3]) read?
The Activity was “Active”.

And the Activity (Plasmodium berghei [4])?
Its Activity is “Active”.

`Cc1cc(C)c2nc3c(c([C@H]4OC(c5ccc(Cl)cc5)N5CCCC[C@H]45)c2c1)CCC3` (mixture of isomers) was tested. Which Activity (Plasmodium berghei [2]) did it give?
The Activity was “inactive”.
